Data as given in patent US20250041300A1, “PHARMACEUTICAL COMBINATION COMPRISING ABEMACICLIB AND A PI3K AND/OR A MTOR INHIBITOR FOR THE TREATMENT OF MANTLE CELL LYMPHOMA” (Board of Regents, The University of Texas System, priority 2021, published 2025).

Key:
[1] = target: mTOR (Homo sapiens, UniProt P42345); conditions: cited from earlier work
[2] = target: PI3Kβ (Homo sapiens, UniProt P42338); conditions: cited from earlier work
[3] = target: PI3Kα (Homo sapiens, UniProt P42336); conditions: cited from earlier work
[4] = target: PI3Kγ (Homo sapiens, UniProt P48736); conditions: cited from earlier work
[5] = target: PI3Kδ (Homo sapiens, UniProt O00329); conditions: cited from earlier work
[6] = target: mTORC1/2 (Homo sapiens, UniProt P42345); conditions: in words; cited from earlier work
[7] = system: Mino-ven-R cells; experiment: CellTiter-Glo Luminescent Cell viability Assay, abemaciclib single agent; assay type: cell-based; conditions: 72h, acquired venetoclax resistance
Experimental: (§1) IC50 values were calculated using GraphPad Prism 8 for each cell line. Student's t-test was performed to compare the difference between vehicle and treated groups. Two-way analysis of variance (ANOVA) was conducted to analyze the tumor growth in vivo experiments. P values less than 0.05 were considered statistically significant.

[8] = system: Rec-ven-R cells; experiment: as above; assay type: cell-based; conditions: 72h, acquired venetoclax resistance
Experimental: as §1

[9] = system: MCL cell lines (Mino, Rec-1, Maver-1, Z138, JeKo-1); experiment: as above; assay type: cell-based; conditions: 72h; range over venetoclax sensitive (Mino, Rec-1, Maver-1, Z138) and primary resistant (JeKo-1) MCL cells
Experimental: as §1

[10] = system: class I PI3Ks; conditions: cited from earlier work

PI3Kγ, sequence (P48736 whole entry): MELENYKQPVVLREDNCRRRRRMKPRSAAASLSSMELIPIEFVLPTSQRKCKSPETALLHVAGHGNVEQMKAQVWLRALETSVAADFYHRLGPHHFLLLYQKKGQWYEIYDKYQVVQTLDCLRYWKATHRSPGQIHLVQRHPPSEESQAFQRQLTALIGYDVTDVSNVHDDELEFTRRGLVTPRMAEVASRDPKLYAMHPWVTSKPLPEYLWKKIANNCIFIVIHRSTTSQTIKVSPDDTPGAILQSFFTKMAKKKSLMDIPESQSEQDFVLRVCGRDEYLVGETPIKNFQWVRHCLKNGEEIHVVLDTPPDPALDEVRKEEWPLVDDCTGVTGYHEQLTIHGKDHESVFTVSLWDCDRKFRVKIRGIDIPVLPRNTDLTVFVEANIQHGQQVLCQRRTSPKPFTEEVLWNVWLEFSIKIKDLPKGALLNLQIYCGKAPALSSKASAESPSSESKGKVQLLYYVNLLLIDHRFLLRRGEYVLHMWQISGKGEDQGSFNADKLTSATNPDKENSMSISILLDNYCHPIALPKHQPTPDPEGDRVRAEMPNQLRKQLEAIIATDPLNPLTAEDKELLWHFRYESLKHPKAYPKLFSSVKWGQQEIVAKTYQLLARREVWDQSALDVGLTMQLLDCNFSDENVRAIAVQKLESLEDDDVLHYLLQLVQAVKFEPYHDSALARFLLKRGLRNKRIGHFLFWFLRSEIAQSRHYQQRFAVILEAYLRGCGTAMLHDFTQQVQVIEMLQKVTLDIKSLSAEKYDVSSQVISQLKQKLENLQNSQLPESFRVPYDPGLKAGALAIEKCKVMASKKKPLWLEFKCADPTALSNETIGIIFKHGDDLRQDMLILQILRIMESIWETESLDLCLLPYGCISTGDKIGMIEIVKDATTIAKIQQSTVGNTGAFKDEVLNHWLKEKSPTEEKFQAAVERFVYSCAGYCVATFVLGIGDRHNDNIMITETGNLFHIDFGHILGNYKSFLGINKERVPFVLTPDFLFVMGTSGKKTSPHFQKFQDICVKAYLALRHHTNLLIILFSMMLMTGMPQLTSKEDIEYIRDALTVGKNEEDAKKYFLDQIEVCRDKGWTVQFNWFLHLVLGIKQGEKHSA
PI3Kβ, sequence (P42338 whole entry): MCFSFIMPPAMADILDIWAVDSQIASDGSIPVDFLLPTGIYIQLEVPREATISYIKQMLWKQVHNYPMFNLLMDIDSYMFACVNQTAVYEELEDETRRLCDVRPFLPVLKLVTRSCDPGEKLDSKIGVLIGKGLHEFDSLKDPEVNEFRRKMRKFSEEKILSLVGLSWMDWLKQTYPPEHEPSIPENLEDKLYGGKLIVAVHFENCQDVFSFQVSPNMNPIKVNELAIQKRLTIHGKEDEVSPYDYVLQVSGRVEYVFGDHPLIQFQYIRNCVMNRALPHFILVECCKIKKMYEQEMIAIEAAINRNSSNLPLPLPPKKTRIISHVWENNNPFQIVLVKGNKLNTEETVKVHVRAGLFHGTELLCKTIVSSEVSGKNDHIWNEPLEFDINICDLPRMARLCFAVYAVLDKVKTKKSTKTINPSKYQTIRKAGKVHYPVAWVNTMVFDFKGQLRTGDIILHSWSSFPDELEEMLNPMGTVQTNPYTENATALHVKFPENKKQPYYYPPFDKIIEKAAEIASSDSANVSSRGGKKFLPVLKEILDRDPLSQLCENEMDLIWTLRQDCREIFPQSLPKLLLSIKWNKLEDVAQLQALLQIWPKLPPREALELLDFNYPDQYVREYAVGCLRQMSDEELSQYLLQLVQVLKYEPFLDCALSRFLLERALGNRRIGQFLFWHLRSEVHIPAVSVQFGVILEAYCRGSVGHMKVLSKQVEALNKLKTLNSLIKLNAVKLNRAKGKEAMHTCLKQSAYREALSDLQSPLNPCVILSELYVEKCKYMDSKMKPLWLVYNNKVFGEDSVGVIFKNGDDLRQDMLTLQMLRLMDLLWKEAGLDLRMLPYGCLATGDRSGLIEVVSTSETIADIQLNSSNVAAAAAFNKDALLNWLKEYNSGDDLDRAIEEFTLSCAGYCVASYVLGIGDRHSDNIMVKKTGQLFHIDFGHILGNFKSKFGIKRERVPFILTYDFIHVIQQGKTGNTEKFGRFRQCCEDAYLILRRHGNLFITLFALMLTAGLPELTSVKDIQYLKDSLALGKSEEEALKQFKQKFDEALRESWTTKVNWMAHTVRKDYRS
PI3Kβ, sequence (P27986 whole entry partner): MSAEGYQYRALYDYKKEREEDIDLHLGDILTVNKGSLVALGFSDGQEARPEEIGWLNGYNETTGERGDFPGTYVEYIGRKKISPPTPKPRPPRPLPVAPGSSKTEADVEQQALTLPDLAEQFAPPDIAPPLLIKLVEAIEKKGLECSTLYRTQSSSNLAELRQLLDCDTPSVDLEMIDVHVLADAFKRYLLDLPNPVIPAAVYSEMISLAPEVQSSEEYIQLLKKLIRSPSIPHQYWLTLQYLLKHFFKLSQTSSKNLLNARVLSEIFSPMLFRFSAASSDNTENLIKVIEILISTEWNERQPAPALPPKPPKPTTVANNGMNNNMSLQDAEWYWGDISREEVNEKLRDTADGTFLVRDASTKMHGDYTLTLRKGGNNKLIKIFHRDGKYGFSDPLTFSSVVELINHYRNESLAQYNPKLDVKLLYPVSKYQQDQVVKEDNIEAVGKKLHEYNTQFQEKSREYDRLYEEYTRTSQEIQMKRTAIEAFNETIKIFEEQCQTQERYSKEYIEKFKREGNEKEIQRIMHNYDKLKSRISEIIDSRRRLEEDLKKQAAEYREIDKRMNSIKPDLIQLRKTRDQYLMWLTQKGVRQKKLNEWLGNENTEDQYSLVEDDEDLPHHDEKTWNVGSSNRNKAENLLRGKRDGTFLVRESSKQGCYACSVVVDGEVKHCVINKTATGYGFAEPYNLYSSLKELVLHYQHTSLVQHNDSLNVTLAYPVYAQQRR
PI3Kα, sequence (P42336 whole entry): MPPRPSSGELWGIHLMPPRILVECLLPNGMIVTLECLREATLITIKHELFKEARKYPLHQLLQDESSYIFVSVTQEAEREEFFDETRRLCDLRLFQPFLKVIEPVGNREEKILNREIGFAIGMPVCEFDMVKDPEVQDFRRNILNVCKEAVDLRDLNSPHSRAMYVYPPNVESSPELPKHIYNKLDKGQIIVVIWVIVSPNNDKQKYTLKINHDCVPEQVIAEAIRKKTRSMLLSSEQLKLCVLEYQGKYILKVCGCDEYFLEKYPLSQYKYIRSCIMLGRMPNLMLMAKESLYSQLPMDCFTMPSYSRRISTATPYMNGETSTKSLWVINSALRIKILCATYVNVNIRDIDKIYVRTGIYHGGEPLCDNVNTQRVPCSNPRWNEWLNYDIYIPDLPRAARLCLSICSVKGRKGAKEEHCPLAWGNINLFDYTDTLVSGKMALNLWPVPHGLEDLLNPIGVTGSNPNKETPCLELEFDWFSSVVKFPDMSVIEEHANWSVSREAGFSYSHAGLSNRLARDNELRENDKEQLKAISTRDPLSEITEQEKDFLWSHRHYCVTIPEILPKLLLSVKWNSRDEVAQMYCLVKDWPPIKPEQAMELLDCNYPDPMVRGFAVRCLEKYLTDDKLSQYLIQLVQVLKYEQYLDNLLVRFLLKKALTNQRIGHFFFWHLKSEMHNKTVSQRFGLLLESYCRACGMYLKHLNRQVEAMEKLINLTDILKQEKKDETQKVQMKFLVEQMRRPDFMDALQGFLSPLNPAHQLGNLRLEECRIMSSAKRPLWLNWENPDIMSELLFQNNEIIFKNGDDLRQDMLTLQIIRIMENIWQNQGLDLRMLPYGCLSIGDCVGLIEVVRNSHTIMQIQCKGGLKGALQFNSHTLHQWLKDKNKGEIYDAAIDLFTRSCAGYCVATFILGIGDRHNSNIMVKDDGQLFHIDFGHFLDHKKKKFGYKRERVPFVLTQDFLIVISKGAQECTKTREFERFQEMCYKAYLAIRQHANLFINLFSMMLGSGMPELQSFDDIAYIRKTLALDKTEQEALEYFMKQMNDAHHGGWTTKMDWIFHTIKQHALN
PI3Kα, sequence (P27986 whole entry partner): as the sequence (P27986 whole entry partner) above
PI3Kδ, sequence (O00329 whole entry): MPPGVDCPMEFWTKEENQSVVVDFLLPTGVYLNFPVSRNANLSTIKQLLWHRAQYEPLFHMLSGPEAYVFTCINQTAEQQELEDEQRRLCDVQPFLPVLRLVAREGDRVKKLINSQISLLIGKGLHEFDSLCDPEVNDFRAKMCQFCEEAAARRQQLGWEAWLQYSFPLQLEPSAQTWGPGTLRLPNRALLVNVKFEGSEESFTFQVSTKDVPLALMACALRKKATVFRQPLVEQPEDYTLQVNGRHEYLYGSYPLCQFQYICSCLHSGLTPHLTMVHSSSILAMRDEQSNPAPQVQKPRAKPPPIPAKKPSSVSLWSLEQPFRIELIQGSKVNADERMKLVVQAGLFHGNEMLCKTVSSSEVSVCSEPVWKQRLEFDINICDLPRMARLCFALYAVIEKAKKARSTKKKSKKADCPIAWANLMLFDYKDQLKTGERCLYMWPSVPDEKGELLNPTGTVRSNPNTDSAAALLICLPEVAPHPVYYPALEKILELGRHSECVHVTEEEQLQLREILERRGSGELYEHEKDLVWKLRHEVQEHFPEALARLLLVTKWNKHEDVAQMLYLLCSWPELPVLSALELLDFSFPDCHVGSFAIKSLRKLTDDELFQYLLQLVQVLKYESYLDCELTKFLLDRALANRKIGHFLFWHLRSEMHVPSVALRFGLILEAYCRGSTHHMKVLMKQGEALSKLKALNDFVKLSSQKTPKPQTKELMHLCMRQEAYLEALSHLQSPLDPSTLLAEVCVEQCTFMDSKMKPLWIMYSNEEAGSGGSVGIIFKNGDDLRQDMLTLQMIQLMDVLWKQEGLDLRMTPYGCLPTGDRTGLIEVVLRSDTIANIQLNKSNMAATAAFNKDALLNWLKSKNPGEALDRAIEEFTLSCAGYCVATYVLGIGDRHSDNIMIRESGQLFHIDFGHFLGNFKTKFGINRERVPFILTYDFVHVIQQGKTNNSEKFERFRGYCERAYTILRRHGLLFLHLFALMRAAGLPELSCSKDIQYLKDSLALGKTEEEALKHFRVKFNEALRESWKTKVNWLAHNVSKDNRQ
PI3Kδ, sequence (P27986 whole entry partner): as the sequence (P27986 whole entry partner) above

For COc1cccc2cc(-c3nc([C@H]4CC[C@H](C(=O)O)CC4)n4ncnc(N)c34)[nH]c12 [OSI-027, 4-[4-amino-5-(7-methoxy-1H-indol-2-yl)imidazo[5,1-f][1,2,4]triazin-7-yl]cyclohexane-1-carboxylic acid], the “IC50 against mTOR (order of magnitude in words)” value (shortened to “IC50 against mTOR”) [1] is listed as “nanomolar”.
For CO[C@H]1C[C@@H]2CC[C@@H](C)[C@@](O)(O2)C(=O)C(=O)N2CCCC[C@H]2C(=O)O[C@H]([C@H](C)C[C@@H]2CC[C@@H](OC(=O)C(C)(CO)CO)[C@H](OC)C2)CC(=O)[C@H](C)/C=C(\C)[C@@H](O)[C@@H](OC)C(=O)[C@H](C)C[C@H](C)/C=C/C=C/C=C/1C [Temsirolimus, [(1R,2R,4S)-4-[(2R)-2-[(1R,9S, 12S, 15R, 16E,18R, 19R,21R,23S,24E,26E,28E,30S,32S,35R)-1,18-dihydroxy-19,30-dimethoxy-15,17,21,23,29,35-hexamethyl-2,3,10, 14,20-pentaoxo-11,36-dioxa-4-azatricyclo[30.3.1.04,9]hexatriaconta-16,24,26,28-tetraen-12-yl]propyl]-2-methoxycyclohexyl]3-hydroxy-2-(hydroxymethyl)-2-methylpropanoate], the “IC50 against mTOR” value [1] is listed as “micromolar”.
In the case of O=C(Nc1ccncc1)Nc1ccc(-c2nc(N3CCOCC3)nc(N3C4CCC3COC4)n2)cc1 [PKI-179, 1-[4-[4-morpholin-4-yl-6-(3-oxa-8-azabicyclo[3.2.1]octan-8-yl)-1,3,5-triazin-2-yl]phenyl]-3-pyridin-4-ylurea], the “IC50 against PI3Kβ (order of magnitude in words)” value (from here on “IC50 against PI3Kβ”) [2] is listed as “nanomolar”, the “IC50 against PI3Kα (order of magnitude in words)” value (“IC50 against PI3Kα” for short) [3] is listed as “nanomolar” and the “IC50 against PI3Kγ (order of magnitude in words)” value (from here on “IC50 against PI3Kγ”) [4] is listed as “nanomolar”. The “IC50 against PI3Kδ (order of magnitude in words)” value (“IC50 against PI3Kδ” below) [5] was “nanomolar” and the “IC50 against mTOR” value [1] was “nanomolar”.
For C[C@@H](Nc1cc(F)cc(F)c1)c1cc(C(=O)N(C)C)cc2c(=O)cc(N3CCOCC3)oc12 [AZD8186, 8-[(1R)-1-(3,5-difluoroanilino)ethyl]-N,N-dimethyl-2-morpholin-4-yl-4-oxochromene-6-carboxamide], the “IC50 against PI3Kδ” value [5] is given as “nanomolar”.
In the case of Nc1nc2cc(-c3ccc4ncc(C(=O)N5CCOCC5)n4c3)ccc2o1 [Serabelisib, [6-(2-amino-1,3-benzoxazol-5-yl)imidazo[1,2-a]pyridin-3-yl]-morpholin-4-ylmethanone], the “IC50 against PI3Kα” value [3] is given as “nanomolar”.
In the case of COc1ncc(-c2ccc3nccc(-c4ccnnc4)c3c2)cc1NS(=O)(=O)c1ccc(F)cc1F [Omipalisib, 2,4-difluoro-N-[2-methoxy-5-(4-pyridazin-4-ylquinolin-6-yl)pyridin-3-yl]benzenesulfonamide], the “IC50 against PI3Kγ” value [4] is listed as “nanomolar”.
For CCn1c(=O)c(-c2ccn[nH]2)cc2c(C)nc(N)nc21 [Voxtalisib, 2-amino-8-ethyl-4-methyl-6-(1H-pyrazol-5-yl)pyrido[2,3-d]pyrimidin-7-one], the “IC50 against PI3Kβ” value [2] is given as “nanomolar”, the “IC50 against PI3Kα” value [3] is given as “nanomolar” and the “IC50 against PI3Kγ” value [4] is given as “nanomolar”. For the same compound, the “IC50 against PI3Kδ” value [5] was “nanomolar” and the “IC50 against mTOR” value [1] was “nanomolar”.
In the case of C[C@H](Nc1ncnc2nc[nH]c12)c1nc2ccc(F)cc2c(=O)n1-c1ccccc1 [Acalisib, 6-fluoro-3-phenyl-2-[(1S)-1-(7H-purin-6-ylamino)ethyl]quinazolin-4-one], the “IC50 against PI3Kδ” value [5] is listed as “nanomolar”.
For CCOc1c([C@H](C)n2nc(C)c3c(N)ncnc32)cc(Cl)c(F)c1[C@@H]1CNC(=O)C1 [Parsaclisib, (4R)-4-[3-[(1S)-1-(4-amino-3-methylpyrazolo[3,4-d]pyrimidin-1-yl)ethyl]-5-chloro-2-ethoxy-6-fluorophenyl]pyrrolidin-2-one], the “IC50 against PI3Kδ” value [5] is given as “nanomolar”.
For COc1ccc(-c2ccc3ncc4c(c3c2)n(-c2ccc(N3CCNCC3)c(C(F)(F)F)c2)c(=O)n4C)cn1 [BGT-226, 8-(6-methoxypyridin-3-yl)-3-methyl-1-[4-piperazin-1-yl-3-(trifluoromethyl)phenyl]imidazo[4,5-c]quinolin-2-one], the “IC50 against PI3Kβ” value [2] is listed as “nanomolar”, the “IC50 against PI3Kα” value [3] is listed as “nanomolar” and the “IC50 against PI3Kγ” value [4] is listed as “nanomolar”. The “IC50 against PI3Kδ” value [5] was “nanomolar” and the “IC50 against mTOR” value [1] was “nanomolar”.
In the case of Cc1nc(-c2cn3c(n2)-c2ccc(-c4cnn(C(C)(C)C(N)=O)c4)cc2OCC3)n(C(C)C)n1 [Taselisib, 2-methyl-2-[4-[2-(5-methyl-2-propan-2-yl-1,2,4-triazol-3-yl)-5,6-dihydroimidazo[1,2-d][1,4]benzoxazepin-9-yl]pyrazol-1-yl]propanamide], the “IC50 against PI3Kβ” value [2] is given as “nanomolar” and the “IC50 against PI3Kγ” value [4] is given as “nanomolar”.
For Cc1c(CN2CCN(C(=O)[C@H](C)O)CC2)sc2c(N3CCOCC3)nc(-c3cnc(N)nc3)nc12 [Apitolisib, (2S)-1-[4-[[2-(2-aminopyrimidin-5-yl)-7-methyl-4-morpholin-4-ylthieno[3,2-d]pyrimidin-6-yl]methyl]piperazin-1-yl]-2-hydroxypropan-1-one], the “IC50 against mTOR” value [1] is given as “nanomolar”.
For CO[C@@H](C)Cn1c(=O)n(C)c2cnc3ccc(-c4cncc(C(C)(C)O)c4)cc3c21 [Samotolisib, 8-[5-(2-hydroxypropan-2-yl)pyridin-3-yl]-1-[(2S)-2-methoxypropyl]-3-methylimidazo[4,5-c]quinolin-2-one], the “concentrations at which mTORC1/2 is inhibited” value [6] is listed as “low nanomolar concentrations”.
Work on CCN1CCN(Cc2ccc(Nc3ncc(F)c(-c4cc(F)c5nc(C)n(C(C)C)c5c4)n3)nc2)CC1 [abemaciclib] yielded an IC50 [7] of 6 µM, an IC50 [8] of 4.4 µM and an IC50 [9] of 0.07 to 0.952 µM.
For COc1ccc(Cl)c(Nc2nc3ccccc3nc2NS(=O)(=O)c2cccc(NC(=O)C(C)(C)N)c2)c1 [Pilaralisib, 2-amino-N-[3-[[3-(2-chloro-5-methoxyanilino)quinoxalin-2-yl]sulfamoyl]phenyl]-2-methylpropanamide], the “IC50 against PI3Kβ” value [2] is listed as “nanomolar”, the “IC50 against PI3Kα” value [3] is listed as “nanomolar” and the “IC50 against PI3Kγ” value [4] is listed as “nanomolar”. The “IC50 against PI3Kδ” value [5] was “nanomolar”.
In the case of CS(=O)(=O)N1CCc2c(-c3cnc(N)nc3)nc(N3CCOCC3)nc21 [CH5132799, 5-(7-(methylsulfonyl)-2-morpholino-6,7-dihydro-5H-pyrrolo[2,3-d]pyrimidin-4-yl)pyrimidin-2-amine], the “IC50 against class I PI3Ks (order of magnitude in words)” value [10] is listed as “nanomolar”.
For CN1CCC(c2ccccc2CC(C)(C)Nc2nc(N3CCOCC3)nc(-n3c(C(F)F)nc4ccccc43)n2)CC1 [Zandelisib, 4-[2-(difluoromethyl)benzimidazol-1-yl]-N-[2-methyl-1-[2-(1-methylpiperidin-4-yl)phenyl]propan-2-yl]-6-morpholin-4-yl-1,3,5-triazin-2-amine], the “IC50 against PI3Kδ” value [5] is given as “nanomolar”.
For C=CCN(/C=C1/C(=O)O[C@H](COC)[C@@]2(C)C1=C(O)C(=O)C1=C2[C@H](OC(C)=O)C[C@]2(C)C(=O)CC[C@@H]12)CC=C [Sonolisib, [(3αR,6E,9S,9αR,10R,11αS)-6-[bis(prop-2-enyl)aminomethylidene]-5-hydroxy-9-(methoxymethyl)-9α,11α-dimethyl-1,4,7-trioxo-2,3,3a,9,10,11-hexahydroindeno[4,5-h]isochromen-10-yl]acetate], the “IC50 against PI3Kα” value [3] is given as “nanomolar”, the “IC50 against PI3Kγ” value [4] is given as “nanomolar” and the “IC50 against PI3Kδ” value [5] is given as “nanomolar”.
For CC[C@H](Nc1ncnc2[nH]cnc12)c1oc2ccccc2c(=O)c1-c1cccc(F)c1 [Tenalisib, 3-(3-fluorophenyl)-2-[(1S)-1-(7H-purin-6-ylamino)propyl]chromen-4-one], the “IC50 against PI3Kγ” value [4] is given as “nanomolar” and the “IC50 against PI3Kδ” value [5] is given as “nanomolar”.
